Data: a melting point compilation (Tetko et al.; mined from patent text by program, amines drawn as free bases though some values may be those of a salt)

Row | SMILES | melting point
1 | O=C(c1ccccc1)c1cc(-c2ccccc2)c(OS(=O)(=O)c2ccc(C(=O)O)c(O)c2)c(-c2ccccc2)c1 | 217 °C
2 | CCSc1ccc(-c2nccs2)c2c1C(=O)CC(C)C2 (stereo not drawn) | 117 to 118 °C
3 | CCOCCOc1ccc(-c2ccc3c(c2)C=C(C(=O)Nc2ccc(CN(C)C4CCOCC4)cc2)CCS3(=O)=O)cc1 | 215 to 217 °C
4 | N#Cc1ccc(CCCCC2CC(c3cccnc3)=CC(=O)O2)cc1 (stereo not drawn) | 110 to 112 °C
5 | O=C(CCl)Nc1ccc2c(c1NC(=O)c1ccno1)C(=O)c1ccccc1C2=O | 212 to 213 °C
6 | CN1CCSC1=C[N+](=O)[O-] | 169 to 171 °C
7 | CN1Cc2ccccc2[C@H]2c3cccc4c3c(cn4C)C[C@@H]21 (relative stereo) | 184 to 185 °C
8 | CC(C)(C)COc1ccc([N+](=O)[O-])cc1C#N | 90 to 91 °C
9 | NC(=O)CNC(=O)c1cccc(-c2cccc3cc(Cc4cccc(CO)c4)sc23)c1 | 155 to 156 °C
10 | Nc1nc(CCCO)nc2c1ncn2C1OC(CO)C(O)C1S (stereo not drawn) | 117 to 119 °C
11 | CN(Cc1ccc(NC(=O)C2=Cc3cc(-c4ccc(-n5ccnc5)cc4)ccc3OCC2)cc1)C1CCOCC1 | 194 to 195 °C
12 | Cc1csc(Nc2nc(C(C)(C)C)c(O)c(C(C)(C)C)n2)n1 | 171 to 173 °C
13 | COCCc1nc2c(N)nc3cc(OCc4cccc([N+](=O)[O-])c4)ccc3c2n1CC(C)(C)O | 125 to 127 °C
14 | CC(C)(C)CNc1cc(N2CCNCC2)nc(NC(C)(C)C)n1 | 120 to 124 °C
15 | CCn1ncc2c3noc(-c4ccc(F)cc4)c3cnc21 | 222 to 223 °C
16 | COc1ccc(-c2cc(-c3cc(C)ns3)c(=O)n(C)c2-c2ccncc2)cc1 | 195 to 198 °C
17 | CCCc1c(C)c(NC(=O)CC(C)(C)C)c(C)c2c1OCC2c1ccc(C(C)C)cc1 (stereo not drawn) | 145 to 148 °C
18 | O=C(NC1CCOCC1)c1cccc(-c2cccc3cc(Cc4cc(F)cc(Cl)c4)sc23)c1 | 127 to 128 °C
19 | Cc1nc(C)c(Cl)c(NCc2nccc(OCCCCN3CCNCC3)c2C)n1 | 140 to 144 °C
20 | COc1ccc(N(C(=O)CN2C(=O)C(Cc3n[nH]c4ccccc34)C(=O)N(c3cccnc3)c3ccccc32)C(C)C)cc1 (single isomer, unassigned; (+)) | 214 to 215 °C
21 | Cc1ccc(-c2c(Cl)nc(-c3cccs3)nc2Cl)cc1 | 120 °C
22 | CCCCCCCCCCCCOCCCNc1cc(OCC(=O)Nc2ccc(NNC=O)cc2)c2ccccc2c1O | 137 to 141 °C
23 | CCN(CC)c1cc(C)nc(-c2ccncc2)n1 | 205 to 208 °C
24 | Cc1cccc(-c2sc(N)nc2-c2ccnc(-c3ccc(N4CCOCC4)cc3)c2)n1 | 246 °C
25 | CC(O)Cn1nc2c3c(cc(O)cc31)CCC2 (stereo not drawn) | 153 to 155 °C

Row | SMILES | melting point
26 | O=C(NOCC(=O)N1CCCC1C(=O)O)NN1CCCC1C(=O)O (stereo not drawn) | 157 to 160 °C
27 | CC1Cc2cc3c(cc2C(c2ccc([N+](=O)[O-])cc2)=NN1C(N)=NO)OCO3 (stereo not drawn) | 138 to 145 °C
28 | O=C(c1ccc(Cl)cc1)c1ccc(N2N=CCNC2=O)cc1Cl | 158 to 159 °C
29 | CNc1ccc(-c2cnc3[nH]c(=O)n(CC4CCOCC4)c3n2)cn1 | > 260 °C
30 | CNS(=O)(=O)c1ccc(-c2cccc3nc(Nc4cc(OC)c(OC)c(OC)c4)oc23)cc1 | 260 to 262 °C
31 | O=C(CCl)c1ccc2c(c1)Cc1cc(C(=O)CCl)ccc1O2 | 200 to 201 °C
32 | CNC(=C[N+](=O)[O-])NCCCCc1ccc(CN(C)C)s1 | 104 to 106 °C
33 | O=C(Nc1ccc(C(=O)N2Cc3ccccc3Sc3ccccc32)cc1)c1ccc(Cl)cc1Cl | 112 to 115 °C
34 | O=C(Nc1cccc(S(=O)(=O)C(F)(F)F)c1)c1cnn2c(C(F)F)cc(-c3ccc(C(F)(F)F)cc3)nc12 | 207 °C
35 | COC(=O)[C@H](Cc1cc(Cl)c(Oc2ccc3cc(OC)ccc3c2)c(Cl)c1)NC(=O)C(F)(F)F | 188 to 189 °C
36 | CC(C)(C)OC(=O)[C@@H]1CC[C@@H]2C=C[C@H]3CCN(C(=O)OC(C)(C)C)[C@@H]3C(=O)N21 | 147 to 149 °C
37 | CCCN(CCN)CCNC(=O)c1nc(Cl)c(N)nc1N | 91 to 94 °C
38 | Fc1cc(F)c(N=C2NCCN2)c(F)c1F | 167 to 168 °C
39 | Cc1c(C(F)(F)F)nn(-c2c(Cl)cc(C(F)(F)F)cc2Cl)c1N | 97 to 100 °C
40 | CC(C)c1nc(-c2cccs2)cc(-c2ccc(F)cc2)c1CO | 151 to 153 °C
41 | Cc1cc(C)cc(Sc2c(C(C)C)c(=O)[nH]c(=O)n2CCC2CC=CC2)c1 | 128 to 129 °C
42 | CC1Oc2ccc(C(=O)CCC(=O)O)cc2NC1=O (stereo not drawn) | 198 to 200 °C
43 | N#CNC(=S)Nc1ccc([N+](=O)[O-])cc1 | > 250 °C
44 | O=C(NCCc1ccccn1)c1ccccc1-c1ccccc1CNS(=O)(=O)c1ccc(F)cc1 | 130 °C
45 | Cc1ccc(C=CC(=O)NNC(=O)CCc2cc(C(C)(C)C)c(O)c(C(C)(C)C)c2)cc1 | 274 to 275 °C
46 | CCOC(=O)C(=O)Cc1ccc(C#N)cc1[N+](=O)[O-] | 118 °C
47 | CCc1cc2c(s1)-n1nc(C(N)=O)nc1C(OC(C)=O)N=C2c1ccccc1Cl (stereo not drawn) | 168 to 170 °C
48 | CCCCCCCCCCCCCC(=O)Nc1ccc(Cl)c(NC2=NN(c3c(Cl)cc(Cl)cc3Cl)C(=O)C2SCc2ccccc2)c1 (stereo not drawn) | 182 to 185 °C
49 | COC(=O)c1ccc2c(c1)COc1ccc(/C=C/c3ccc4c(n3)CCCC4)cc1C2SCCC(=O)O (stereo not drawn) | 121 to 123 °C
50 | CCCCCCOc1c(F)cc(F)c(C(N)=O)c1F | 89 to 90 °C

Results, then the compound that gave them:

Row | melting point | SMILES
51 | 89 to 90 °C | CN1C[C@@H](O)[C@H](Oc2ccccc2)C1 (relative stereo)
52 | 154 to 157 °C | COc1ccc(-c2cn(C)cc(-c3ccccc3)c2=O)cc1OC
53 | 141 to 142 °C | O=C(O)c1cn(Cc2ccc(Oc3ccccc3)cc2)nc1OCc1ccc(Oc2ccccc2)cc1
54 | 192 to 195 °C | O=C(NN1CCc2ccccc2C(Oc2ccc(C(F)(F)F)cc2)C1)C(F)(F)F (stereo not drawn)
55 | 256 °C | CCCC1=C(C#N)C(c2ccccc2Cl)c2c(n[nH]c2-c2cccs2)N1 (stereo not drawn)
56 | 210 to 212 °C | O=C(O)C=C1CC(C(=O)OCc2ccccc2)Nc2cc(Cl)cc(Cl)c21 (racemic)
57 | 140 °C | COc1cc2c(cc1OCc1ccccc1)ncc1c(N)nc(-n3ccnc3)cc12
58 | 156 to 157 °C | CSc1ccc(N)c(C(=O)NCC2CCN(C(c3ccccc3)c3ccccc3)CC2)c1
59 | > 275 °C | CCOC(=O)CCc1ccc2[nH]c(-c3cccnc3)c(C)c2c1
60 | 177 to 178 °C | CCOC(=O)c1cnc2n(c1=O)C(C)CCC2=NNc1ccc(Cl)cc1 (stereo not drawn)
61 | 184 to 186 °C | C[Si](C)(C)c1cccc(Cl)c1C(=O)NC(c1ccccc1)n1nnc2ccccc21 (stereo not drawn)
62 | 119 to 121 °C | O=C(NC1CCCCC1)Oc1ccccc1-c1ccccc1
63 | 190 to 192 °C | CC1(C)SCCN(S(=O)(=O)c2ccc(-c3ccc(Br)cc3)cc2)C1C(=O)NO (stereo not drawn)
64 | 178 to 180 °C | CC(Oc1ccc(-c2ccc(S(N)(=O)=O)c(F)c2)cc1)C(O)CCc1cccnc1 (stereo not drawn)
65 | 75 to 77 °C | Cc1oc(-c2ccco2)nc1COc1ccc(CON=C(CCCCCCC(=O)O)c2ccccc2)cc1
66 | 155 to 157 °C | c1ccc(CCN2CCC(c3cc(-c4ccccn4)[nH]n3)CC2)cc1
67 | 165 to 166 °C | O=C(Nc1ccc2c(c1)OCO2)N1Cc2ccccc2C1
68 | 110 °C | COc1cc(C)cc(OC)c1N(CC1CCCCC1)C(=O)CNC(=O)c1cc2ccccc2n1CCC(=O)O
69 | 207 to 208 °C | Cn1nc(C(=O)NCc2ccc(Cl)cc2)c(=O)c2cc(I)cnc21
70 | > 95 °C | C#CCN(Cc1cc2c(=O)n(C)c(CN3CCN(c4ccccc4)CC3)nc2cc1Cl)c1ccc(C(=O)OC(C)(C)C)cc1
71 | 226 °C | O=C1Nc2ccccc2Nc2ccsc21
72 | 177 to 178 °C | COc1cc(-c2ccc3cc4c(cc3c2)C(C)(C)CCC4(C)C)ccc1C(=O)O

Row | melting point | SMILES
73 | 185 to 191 °C | C=CC(=O)Nc1ccc2ncnc(Nc3ccc(Oc4ccccc4)cc3)c2c1
74 | 178 to 180 °C | CS(=O)(=O)c1ccc(-c2[nH]nc3c2-c2ccccc2CC3)cc1
75 | 188 to 190 °C | N#CNC(=N)CCc1ccccc1Sc1ccccc1CCC(=N)NC#N
76 | 236 to 238 °C | O=C1OC2(CCN(C(=O)Nc3cnc(-c4ccccc4)cn3)CC2)c2ccc(F)cc21
77 | 79 to 80 °C | CCCN(CCC)C(=O)CNc1nc(-c2ccccc2)nc(C)c1C
78 | 247 to 250 °C | Cn1c(=O)n(-c2cc(Cl)ccc2O)c2ccc(F)cc21
79 | 51 to 54 °C | NC(=O)CCCC1(c2ccccc2)CC(O)=CC(=O)O1 (stereo not drawn)
80 | 194 to 195 °C | CCC1(CCC(=O)OC(C)(C)C)CCCN2CCc3c([nH]c4ccccc34)C21 (stereo not drawn)
81 | 78 to 79 °C | COc1ccc(CN2CC(CO)CC2=O)cc1OC (stereo not drawn)
82 | 108 °C | CCSc1nnc(-c2ccccc2)n1Cc1ccc([N+](=O)[O-])cc1
83 | 78 to 82 °C | OCC1OC(n2cnc3c(NCCCCC(c4ccccc4)c4ccccc4)ncnc32)C(O)C1O (stereo not drawn)
84 | 238 to 240 °C | CN(C)c1ccc(C(=O)Nc2nc(-c3ccco3)c(C(=O)C3CCOCC3)s2)cc1
85 | 47 to 49 °C | BrCc1cccc(OCCCCOc2ccccc2)c1
86 | 88 to 90 °C | O=c1oc2c(c(O)c1C(c1ccccc1)C1CC1)CCCCC2C(O)C1CC1 (stereo not drawn)
87 | 138 to 139 °C | COc1ccc(C(=O)c2ccc(Cl)nc2)c(O)c1
88 | 156 to 158 °C | Cc1cc(C)c2c(c1OCC(=O)O)Cc1sc(SCCC(c3ccccc3)c3ccccc3)nc1-2
89 | 210 to 212 °C | Nc1sc2c(c1C(=O)c1ccc(Br)c3ccccc13)CCC2
90 | 70 °C | CCCN(Cc1ccc(C(=O)N2CCN(c3ccccc3)CC2)cc1)C1CCc2ncsc2C1 (stereo not drawn)
91 | 162 to 163 °C | Cc1c(C=NO)c2cc(F)ccc2n1-c1ccc(O)cc1
92 | 173 to 175 °C | CC(C)(Oc1ccc(NC(=O)Cc2ccccc2)cc1)C(=O)O
93 | 224 °C | C[C@H]([C@H](O)c1ccc2c(c1)OC(c1ccccc1)(c1ccccc1)O2)N1CCC(O)(c2ccccc2)CC1 (relative stereo)
